Test results taken from patent US10662164B2, “Non-beta lactam antibiotics” (University of Notre Dame du Lac, priority 2014, dated 2020).
Converted amounts (≈) assume the structure as drawn. Read-outs that look alike come from different tables or passages of the source.

How the values were obtained:
E. faecium C68 = assay: MIC determination; type: cell-based; details: Enterococcus faecium, vancomycin-resistant clinical strain from Cleveland hospitals, Table 5
Source text: (§1) The procedure for MIC determination was the same as previously reported (Tran et al., Am. J. Clin. Dermatol. 2015; doi 10.1007/S40257-015-0125-9).

S. aureus VRS1 = assay: MIC determination; type: cell-based; details: Staphylococcus aureus; vancomycin-resistant MRSA (vanA) isolate from Michigan; Tables 1 and 5; read-out: MIC
Source text: (§2) The ESKAPE organisms (E. faecium NCTC (ATCC 19734), S. aureus ATCC 29213, K. pneumonia ATCC 700603, A. baumannii ATCC 17961, P. aeruginosa ATCC 17853, E. aerogenes ATCC 35029) and E. coli ATCC 25922) in the initial screen, S. aureus ATCC 27660, S. epidermis ATCC 35547, S. haemolyticus ATCC 29970, S. oralis ATCC 9811, S. pyogenes ATCC 49399, B. cereus ATCC 13061, B. licheniformis ATCC 12759, and E. faecalis ATCC 29212 were purchased from the American Type Culture Collection (Manassas, Va., USA). S. aureus strains NRS100, NRS119, NRS120, VRS1, and VRS2 were obtained from the Network on Antimicrobial Resistance in Staphylococcus aureus (Chantilly, Va., USA). E. faecalis strains 201 and 99, and E. faecium strains 119-39A and 106 were collected from Wayne State University School of Medicine.
as §1

S. aureus NRS119 = assay: MIC determination; type: cell-based; details: Staphylococcus aureus, mecA positive, linezolid-resistant, Tables 1 and 5, read-out: MIC
Source text: as §2, §1

E. faecalis 99 (Van R) = assay: MIC determination; type: cell-based; details: Enterococcus faecalis; vancomycin-resistant clinical isolate; Tables 1 and 5
Source text: as §2, §1

E. faecalis ATCC 29212 = assay: MIC determination; type: cell-based; details: Enterococcus faecalis, ATCC29212; quality-control strain; Tables 1 and 5; read-out: MIC
Source text: as §2, §1

E. faecium 106 (Van R) = assay: MIC determination; type: cell-based; details: Enterococcus faecium; vancomycin-resistant clinical isolate; Tables 1 and 5; read-out: MIC
Source text: as §2, §1

E. faecalis 201 (Van S) = assay: MIC determination; type: cell-based; details: Enterococcus faecalis; vancomycin-susceptible clinical isolate; Tables 1 and 5; read-out: MIC
Source text: as §2, §1

S. aureus VRS2 = assay: MIC determination; type: cell-based; details: Staphylococcus aureus; vancomycin-resistant MRSA (vanA) isolate from Pennsylvania; Tables 1 and 5; read-out: MIC
Source text: as §2, §1

S. aureus NRS120 = assay: MIC determination; type: cell-based; details: Staphylococcus aureus, mecA positive, linezolid-resistant, Tables 1 and 5, read-out: MIC
Source text: as §2, §1

[1] = system: B. licheniformis ATCC 12759; assay: MIC determination; type: cell-based; details: Bacillus licheniformis, ATCC12759; Tables 1 and 5; read-out: MIC
Source text: as §2, §1

[2] = system: S. haemolyticus ATCC 29970; assay: MIC determination; type: cell-based; details: Staphylococcus haemolyticus, ATCC29970; Tables 1 and 5; read-out: MIC
Source text: as §2, §1

S. epidermis ATCC 35547 = assay: MIC determination; type: cell-based; details: Tables 1 and 5; read-out: MIC
Source text: as §2, §1

B. cereus ATCC 13061 = assay: MIC determination; type: cell-based; details: Bacillus cereus, ATCC13061; Tables 1 and 5; read-out: MIC
Source text: as §2, §1

S. aureus ATCC 27660 [3] = assay: MIC determination; type: cell-based; details: Staphylococcus aureus, ATCC27660; mecA positive, resistant to methicillin, oxacillin, tetracycline; Tables 1 and 5; read-out: MIC
Source text: as §2, §1

[4] = system: E. faecium 119-39A (Van S); assay: MIC determination; type: cell-based; details: Enterococcus faecium; vancomycin-susceptible clinical isolate; Tables 1 and 5; read-out: MIC
Source text: as §2, §1

S. aureus NRS100 (COL) = assay: MIC determination; type: cell-based; details: Staphylococcus aureus, mecA positive, resistant to methicillin, oxacillin, tetracycline, Tables 1 and 5, read-out: MIC
Source text: as §2, §1

S. aureus ATCC 29213 = assay: MIC determination; type: cell-based, Staphylococcus aureus; details: for MIC: Staphylococcus aureus, read-out: MIC
[5] = cited from earlier work
E. faecium NCTC 7171 = assay: MIC determination; type: cell-based, Enterococcus faecium; details: Enterococcus faecium, NCTC7171; Table 1; read-out: MIC
S. oralis ATCC 9811 = assay: MIC determination; type: cell-based; details: Streptococcus oralis, ATCC9811; Table 1; read-out: MIC
Source text: as §2, §1

S. pyogenes ATCC 49399 = assay: MIC determination; type: cell-based; details: Streptococcus pyogenes, ATCC49399; Table 1; read-out: MIC
Source text: as §2, §1

S. aureus ATCC 27660 [6] = assay: Mouse peritonitis model of infection; type: in vivo; details: po, single dose given at 1 h after infection
Description: Compounds 60b, 60c, 65b, 66b, 75b and 76b were evaluated in the mouse peritonitis model of infection (Table 2). We used the ICR out-bred strain of mice that provides a heterogeneous population, similar to the human situation, thus, ensuring the relevance of the antibacterial effect. This animal model of infection is widely used, it is easy to carry out, and the end points (death or survival) are rapidly assessed, making it less resource-intensive compared to other infection models. In addition, excellent correlation between MIC and ED50 has been shown for 14 β-lactam antibiotics using this model (Kratochwil et al., Biochem. Pharmacol. 2002, 64, 1355). The mouse peritonitis infection model continues to be an important model for evaluation of the efficacy of antibiotics against human pathogens. We use the iv route of administration in initial efficacy studies, as this allows us to test the efficacy without knowledge of the oral bioavailability of the lead. Evaluation was done at 20 mg/kg.
Female ICR mice (6-8 weeks old, ˜20-g body weight) were used for the PK and peritonitis studies. Animals were purchased from Harlan Laboratories, Inc. (Indianapolis, Ind., USA) and given Teklad 2019 Extruded Rodent Diet and water ad libitum. Mice were maintained in polycarbonate shoebox cages with ¼″ corncob (The Andersons Inc., Maumee, Ohio) and Alpha-dri (Sheperd Specialty Papers, Inc., Richland, Mich.) bedding under 12-h light/12-h dark cycle at 72±2° F.
The mouse peritonitis model was used with S. aureus ATCC 27660, as described previously (Tran et al., Am. J. Clin. Dermatol. 2015; doi 10.1007/S40257-015-0125-9). The final bacterial inocula contained 5×10^7 cfu/mL and 5% mucin (Sigma-Aldrich Chemical Co., St Louis, Mo., USA). Just prior to inoculation, bacteria at 10^8 cfu/mL were mixed 1:1 with 10% mucin. Mice (n=6 per group) were given 0.5 mL of the bacterial inocula intraperitoneally. Mice were given two iv doses of the compounds at 30 min and 7.5 h after infection by tail vein injection. […] Mice were monitored for 48 h, at which time the number of surviving mice were counted.
The effective dose that results in survival of 50% of the mice was determined using Probit analysis (XLSTAT, New York, N.Y.). Groups of six mice per dose level were evaluated in the mouse peritonitis infection model at iv doses of 2.5, 5, 7.5, 10, 15, and 20 mg/kg and after po doses at 2.5, 5, 10, 20, and 40 mg/kg. […]

[7] = ATCC29213, S. aureus ATCC29213, second numbering, compounds of Scheme 6
[8] = ATCC29213, quality-control, methicillin-susceptible strain, Tables 1 and 5

Compound | MIC (E. faecium C68) [µg/mL] | MIC (S. aureus VRS1) [µg/mL] | MIC (S. aureus NRS119) [µg/mL] | MIC (E. faecalis 99 (Van R)) [µg/mL] | MIC (E. faecalis ATCC 29212) [µg/mL] | MIC (E. faecium 106 (Van R)) [µg/mL] | MIC (E. faecalis 201 (Van S)) [µg/mL] | MIC (S. aureus VRS2) [µg/mL] | MIC (S. aureus NRS120) [µg/mL] | MIC [1] [µg/mL] | MIC [2] [µg/mL] | MIC (S. epidermis ATCC 35547) [µg/mL] | MIC (B. cereus ATCC 13061) [µg/mL] | MIC (S. aureus ATCC 27660 [3]) [µg/mL] | MIC [4] [µg/mL] | MIC (S. aureus NRS100 (COL)) [µg/mL] | MIC (S. aureus ATCC 29213; [7]) [µg/mL] | MIC (S. aureus ATCC 29213; [8]) [µg/mL] | Plasma protein binding [5] [%] | other results
Oc1ccc(-c2nc(-c3ccc(Oc4ccccc4)cc3Cl)no2)cc1 [Compound 52a, 4-(3-(2-chloro-4-phenoxyphenyl)-1,2,4-oxadiazol-5-yl)phenol] | 4 (≈ 11 µM) | 2 (≈ 5.48 µM) | 4 (≈ 11 µM) | 4 (≈ 11 µM) | 4 (≈ 11 µM) | 4 (≈ 11 µM) | 4 (≈ 11 µM) | 2 (≈ 5.48 µM) | 4 (≈ 11 µM) | 2 (≈ 5.48 µM) | 4 (≈ 11 µM) | 4 (≈ 11 µM) | 4 (≈ 11 µM) | 8 (≈ 21.9 µM) | 4 (≈ 11 µM) | 8 (≈ 21.9 µM) | 2 (≈ 5.48 µM) | 2 (≈ 5.48 µM) |  | 
[N-]=[N+]=Nc1cc(-c2noc(-c3ccc(O)cc3)n2)ccc1Oc1ccccc1 [Compound 53a, 4-(3-(3-azido-4-phenoxyphenyl)-1,2,4-oxadiazol-5-yl)phenol] | 4 (≈ 10.8 µM) | 2 (≈ 5.39 µM) | 4 (≈ 10.8 µM) | 4 (≈ 10.8 µM) | 2 (≈ 5.39 µM) | 4 (≈ 10.8 µM) | 4 (≈ 10.8 µM) | 2 (≈ 5.39 µM) | 4 (≈ 10.8 µM) | 4 (≈ 10.8 µM) | 2 (≈ 5.39 µM) | 2 (≈ 5.39 µM) | 4 (≈ 10.8 µM) | 4 (≈ 10.8 µM) | 4 (≈ 10.8 µM) | 4 (≈ 10.8 µM) |  | 2 (≈ 5.39 µM) |  | antibacterial activity in words (SAR, C/D ring derivatives) (S. aureus ATCC 29213; S. aureus ATCC29213, second numbering, compounds of Scheme 6): demonstrated activity
Cc1onc(-c2ccccc2)c1C(=O)N[C@@H]1C(=O)N2[C@@H]1SC(C)(C)[C@@H]2C(=O)O [oxacillin] |  |  |  |  |  |  |  |  |  |  |  |  |  |  |  |  |  |  | > 91 | 
Oc1ccc(-c2nc(-c3ccc(Oc4ccccc4)c(O)c3)no2)cc1 [Compound 51a, 5-(5-(4-hydroxyphenyl)-1,2,4-oxadiazol-3-yl)-2-phenoxyphenol] | 8 (≈ 23.1 µM) | 8 (≈ 23.1 µM) | 8 (≈ 23.1 µM) | 16 (≈ 46.2 µM) | 8 (≈ 23.1 µM) | 8 (≈ 23.1 µM) | 8 (≈ 23.1 µM) | 8 (≈ 23.1 µM) | 8 (≈ 23.1 µM) | 16 (≈ 46.2 µM) | 8 (≈ 23.1 µM) | 16 (≈ 46.2 µM) | 8 (≈ 23.1 µM) | 16 (≈ 46.2 µM) | 8 (≈ 23.1 µM) | 16 (≈ 46.2 µM) | 2 (≈ 5.77 µM) | 2 (≈ 5.77 µM) |  | 
teicoplanin |  |  |  |  |  |  |  |  |  |  |  |  |  |  |  |  |  |  | > 91 | 
CC(=O)NC[C@H]1CN(c2ccc(N3CCOCC3)c(F)c2)C(=O)O1 [linezolid, reference compound] |  | 2 (≈ 5.93 µM) | 32 (≈ 94.9 µM) | 1 (≈ 2.96 µM) | 2 (≈ 5.93 µM) | 1 (≈ 2.96 µM) | 2 (≈ 5.93 µM) | 2 (≈ 5.93 µM) | 32 (≈ 94.9 µM) | 1 (≈ 2.96 µM) | 2 (≈ 5.93 µM) | 1 (≈ 2.96 µM) | 1 (≈ 2.96 µM) | 2 (≈ 5.93 µM) | 2 (≈ 5.93 µM) | 2 (≈ 5.93 µM) |  | 4 (≈ 11.9 µM) |  | MIC (E. faecium NCTC 7171): 2 µg/mL (≈ 5.93 µM); MIC (S. oralis ATCC 9811): 1 µg/mL (≈ 2.96 µM); MIC (S. pyogenes ATCC 49399): 1 µg/mL (≈ 2.96 µM); ED50 (S. aureus ATCC 27660 [6]; Staphylococcus aureus, ATCC27660, read-out: ED50): 2.8 mg/kg; ED50 (S. aureus ATCC 27660 [6]): 2.8 mg/kg
